Results on four molecules are retold here after patent publication US20190030023A1, “METHODS FOR TREATING CANCER” (X4 Pharmaceuticals, Inc., priority 2016, published 2019).

The test system of series [1] is murine models of melanoma, renal cell carcinoma, and ovarian cancer. As to conditions: cited from earlier work.
In series [2] the test system is pancreatic adenocarcinoma. As to conditions: cited from earlier work.
Series [3] has as its system circulating white blood cells (WBCs). The settings on record: Phase 1 and 2a trials, oral administration; cited from earlier work.
The conditions of series [4]: Phase 1 and 2a trials; suggests high tissue penetrance; cited from earlier work.
A further series in a line: in vivo. The settings on record: terminal half-life. As for the experimental part:
In certain embodiments, the dosage composition may be provided twice a day in divided dosage, approximately 12 hours apart. In other embodiments, the dosage composition may be provided once daily. […] Dosage for oral administration may be from about 100 mg to about 1200 mg once or twice per day.

Series [5] in a line: Solubility of X4P-001 by pH and in water. The series is classed as physicochemical. As to conditions: for solubility: aqueous buffer.
Series [6] relates to unresectable or metastatic melanoma. As to conditions: Phase 3 trial, P<0.001 pembrolizumab vs ipilimumab; cited from earlier work.

Converted amounts (≈) assume the structure as drawn.

With `c1cc(CN2CCCNCCNCCCNCC2)ccc1CN1CCCNCCNCCCNCC1` [Plerixafor], the “anti-tumor activity, including decreased metastasis and increased overall survival” value in series [1] is “significant anti-tumor activity”. For the same molecule, in series [2] (CXCR4 antagonist alone), the “T-cell accumulation among the cancer cells” value is listed as “induced rapid T-cell accumulation”. In series [2] (in combination with anti-PD-L1), the tumor growth entry is recorded as “synergistically decreased tumor growth”.

As a reminder, the half-life is the time needed for the level to fall by half in the phase considered. Lower therefore signals rapid decline. What is called solubility is how much of the substance goes into solution per volume. `NCCCCN(Cc1nc2ccccc2[nH]1)[C@H]1CCCc2cccnc21` [X4P-001]: the “pharmacodynamic activity: changes in circulating white blood cells (WBCs)” value in series [3] was “dose- and concentration-related changes”. Further, the “anti-tumor activity, including decreased metastasis and increased overall survival” value in series [1] was “significant anti-tumor activity”. In series [4], the “volume of distribution (VL)” value is reported as “high”. For the same molecule, the half-life in “in vivo” (approximate value) is around 14.5 h; in “in vivo” (range), 12 to 24 h. Further, the solubility in series [5] (pH 9.0 (sparingly soluble)) is 10.7 mg/mL (≈ 30.6 mM); in series [5] (pH 10.0 (slightly soluble)) it was 2 mg/mL (≈ 5.72 mM); in series [5] (pH range 3.0 to 8.0 (freely soluble)), above 100 mg/mL. In addition, the solubility in water entry in series [5] (water) is “only slightly soluble”.

“Pembrolizumab: humanized IgG4 kappa monoclonal antibody that blocks the interaction between PD-1 and its ligands, PD-L1 and PD-L2”: the objective response rate in series [6] was 33%.

As to ipilimumab: anti-CTLA-4 antibody, the objective response rate in series [6] is reported as 12%.
